The test system of experiment [1] is U-2 OS. Description: intracellular GSH:GSSG ratio (calculated); higher = more reduced glutathione pool. As to conditions: 24 h. As to the method: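 Intracellular glutathione in U-2 OS cells after 24 h compound treatment at 5, 10 and 20 uM (some at 40 and 80 uM). Total glutathione and GSSG were measured with the GSH/GSSG-Glo kit, and the GSH:GSSG ratio was calculated. Mean of five technical replicate plates.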

The subject of experiment [2] is U-2 OS. Put plainly: cell viability (CellTiter-Glo) relative to DMSO (% of control); higher = more viable. As to conditions: 24 h. The method, then: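 Cell viability of U-2 OS cells by CellTiter-Glo after 24 h compound treatment at 5, 10 and 20 uM (some at 40 and 80 uM), measured in parallel with the glutathione assay, as percent of DMSO control. Five technical replicate plates, averaged.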

The subject of experiment [3] is U-2 OS. Description: total intracellular glutathione (GSH + GSSG) relative to DMSO (% of control); higher = more glutathione. As to conditions: 24 h. As to the method: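 Total intracellular glutathione (GSH + GSSG) in U-2 OS cells by GSH/GSSG-Glo after 24 h compound treatment at 5, 10 and 20 uM (some at 40 and 80 uM), as percent of DMSO control. Five technical replicate plates, averaged.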

The test system of experiment [4] is U-2 OS. Put plainly: cell painting activity score (Mahalanobis distance from DMSO wells); higher = stronger morphological phenotype. As to conditions: 24 h. The essentials:
(§1)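 Using 384-well plates holding about 1,500 U-2 OS cells per well, treatment was applied by pin tool for 24 h at 37 °C, generally at six 2-fold concentrations ranging from 20 μM to 625 nM. Staining with MitoTracker, concanavalin A, phalloidin, wheat germ agglutinin, Hoechst and SYTO 14 preceded Opera Phenix imaging and CellProfiler feature extraction against DMSO cells on the same plate. Activity score and cell count are both referenced to DMSO wells, the former as a Mahalanobis distance. Four replicate plates were averaged for every value.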

Experiment [5] concerns U-2 OS. Description: relative cell count vs DMSO (cell painting) (fraction of DMSO control); higher = more cells remaining (less cytotoxic). As to conditions: 24 h. Put shortly: as §1
The subject of experiment [6] is U-2 OS. Put plainly: AUC of culture confluence over time (live-cell imaging) (AUC (confluence % x time)); higher = more confluent culture (less growth inhibition). Put shortly: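 Confluence of U-2 OS cells in F-12K medium with 10% FBS was tracked by live-cell imaging. Cells were seeded at 750 per well in 384-well plates and treated 24 h later by pin tool, with most compounds at 20, 10 and 5 μM and 0.2% DMSO. Cells were kept at 37 °C and imaged every 4 h for up to 60 h on an Incucyte S3 with a 10x objective. The value is the area under the confluence-versus-time curve.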

± gives the standard deviation of the averaged measurements.

We go through three compounds from the supplement of paper PMC10011410.

Take `O=C1C=CC(=O)N1c1ccccc1`: the “intracellular GSH:GSSG ratio” value is 20.1 in experiment [1] (5 µM), 4.06 in experiment [1] (10 µM) and 17.8 in experiment [1] (20 µM). The cell viability in experiment [2] (5 µM) was 81.7 ± 12; in experiment [2] (10 µM) it was 14.3 ± 4.6; in experiment [2] (20 µM) it was 4.32 ± 3.1. Besides, the results for the total intracellular glutathione in experiment [3] (5 µM), in experiment [3] (10 µM) and in experiment [3] (20 µM) were 114 ± 9.5, 23.6 ± 7.2 and 14.3 ± 6.1, respectively. The “cell painting activity score” value in experiment [4] (0.625 µM) is 4.85; in experiment [4] (1.25 µM), 4.24; in experiment [4] (2.5 µM), 9.29; in experiment [4] (5 µM) it was 14.7; in experiment [4] (10 µM), 19.6; in experiment [4] (20 µM), 16.3. Also, the relative cell count turned out to be 1.02 in experiment [5] (0.625 µM); 1.06 in experiment [5] (1.25 µM); 0.8 in experiment [5] (2.5 µM); 0.602 in experiment [5] (5 µM); 0.224 in experiment [5] (10 µM); 0.317 in experiment [5] (20 µM). For the same compound, the “AUC of culture confluence over time” value is 13.1 in experiment [6] (5 µM), 14.2 in experiment [6] (10 µM) and 13.5 in experiment [6] (20 µM).

Regarding `COc1cc2ncnc(Nc3ccc(F)c(Cl)c3)c2cc1NC(=O)/C=C/CN1CCCCC1`, the “intracellular GSH:GSSG ratio” value is 10.8 in experiment [1] (5 µM), 7.42 in experiment [1] (10 µM) and 1.96 in experiment [1] (20 µM). The cell viability came out at 74.4 ± 5 in experiment [2] (5 µM), 59.5 ± 2.5 in experiment [2] (10 µM) and 22.4 ± 5.3 in experiment [2] (20 µM). The total intracellular glutathione in experiment [3] (5 µM) came to 81.2 ± 4.8; in experiment [3] (10 µM), 59.3 ± 3.2; in experiment [3] (20 µM) it was 18.3 ± 12. For the same compound, the “cell painting activity score” value in experiment [4] (0.625 µM) was 10.6; in experiment [4] (1.25 µM), 10.4; in experiment [4] (2.5 µM) it was 11.7; in experiment [4] (5 µM), 13.9; in experiment [4] (10 µM) it was 18.6; in experiment [4] (20 µM), 22.1. The relative cell count is 0.624 in experiment [5] (0.625 µM); 0.681 in experiment [5] (1.25 µM); 0.586 in experiment [5] (2.5 µM); 0.503 in experiment [5] (5 µM); 0.331 in experiment [5] (10 µM); 0.035 in experiment [5] (20 µM). Besides, the entries for the “AUC of culture confluence over time” value in experiment [6] (5 µM), in experiment [6] (10 µM) and in experiment [6] (20 µM) were 26.9, 14.6 and 13.7, respectively.

As to `c1ccc(-c2noc(NC3CCCC3)n2)cc1`, the “intracellular GSH:GSSG ratio” value in experiment [1] (5 µM) was 28.5; in experiment [1] (10 µM), 30.3; in experiment [1] (20 µM) it was 26. Besides, the figures for the cell viability in experiment [2] (5 µM), in experiment [2] (10 µM) and in experiment [2] (20 µM) were 95.5 ± 6.9, 101 ± 8.9 and 97 ± 6.5, respectively. Further, the total intracellular glutathione in experiment [3] (5 µM) came to 103 ± 5.1; in experiment [3] (10 µM) it was 103 ± 10; in experiment [3] (20 µM), 107 ± 7.1. Moreover, the “cell painting activity score” value in experiment [4] (0.625 µM) is 2.72; in experiment [4] (1.25 µM), 2.85; in experiment [4] (2.5 µM), 2.97; in experiment [4] (5 µM) it was 3.02; in experiment [4] (10 µM), 2.62; in experiment [4] (20 µM) it was 3.1. Further, the relative cell count came out at 1.03 in experiment [5] (0.625 µM); 1.02 in experiment [5] (1.25 µM); 1.06 in experiment [5] (2.5 µM); 1.05 in experiment [5] (5 µM); 1.07 in experiment [5] (10 µM); 1.06 in experiment [5] (20 µM). Further, the “AUC of culture confluence over time” value in experiment [6] (5 µM) was found to be 44; in experiment [6] (10 µM), 42.5; in experiment [6] (20 µM), 44.2.
